# Results as given in patent publication US6716810B1, “Composition and method for regulation of body weight and associated conditions” (Eleanor Roosevelt Institute, priority 1998, dated 2004).
# Entries after “also recorded” stand apart in the source; their conditions may differ.
# B1: leptin: recombinant mouse leptin, product of the ob gene, provided through the National Hormone and Pituitary Program (protein, UniProt P41160 22-167, looked up)
# Leptin: VPIQKVQDDTKTLIKTIVTRINDISHTQSVSAKQRVTGLDFIPGLHPILSLSKMDQTLAVYQQVLTSLPSQNVLQIANDLENLRDLLHLLAFSKSCSLPQTSGLQKPESLDGVLEASLYSTEVVALSRLQGSLQDILQQLDVSPEC
# Columns and labels:
# Type in all cases: in vivo, mouse
# wildtype mice = test: Weight change and food intake under standard diet, MSH analog or high fat diet, wildtype mice (Example 3); conditions: 1 or 2 μg i.p. once daily
# Experimental: (§1) P values were determined by ANOVA. If the major component of weight regulation through the melanocortinergic pathway was the regulation of feeding behavior, the observed changes in body weight in is POMC null mutant mice should be paralleled by a similar pattern in food uptake. This, however, was not observed (FIGS. 5B and 5D and Table 1).
# ob/ob mutant mice [1] = test: Weight gain and food intake in ob/ob mutants treated with leptin, MSH analog or both (Example 5)
# Experimental: Leptin deficient (ob/ob) mutants show both hyperphagia and “increased metabolic efficiency” as witnessed by their ability to gain weight even when pair-fed with normal congenic controls. To determine the effects of leptin and MSH on food intake and weight gain, four sets of ob/ob mutants were treated with leptin, an MSH analog, both together, or vehicle alone. The MSH analog [Ac-Cys^4, D-Phe^7, Cys^10]α-MSH (4-13) was purchased from Peninsula Laboratories (Belmont, Calif.). Mice were treated with daily injections of 7 micrograms of each, both or neither.
# wildtype female mice = test: Daily intraperitoneal MSH analog in wildtype littermates: body weight, food intake (Example 2); conditions: for weight loss in wildtype littermates: 1 microgram i.p. daily, 16-day treatment
# Experimental: (§2) To test initially for the effect of peripheral melanocortins on weight change, we selected the stable agonist [Ac-Cys^4, D-Phe^7, Cys^10]α-MSH (4-13) (described in Cody et al., 1985, J. Med. Chem. 28, 583-588; incorporated herein by reference in its entirety). Briefly, [Ac-Cys^4, D-Phe^7, Cys^10]α-MSH (4-13) amide, having the cysteines connected by a disulfide bridge, was obtained from Peninsula Laboratories, CA. Lyophilized powder was dissolved in water at 1 mg/ml, which was diluted in PBS to 10 μg/mL. During the experiments, mice were maintained on a normal 12 h/12 h light/dark cycle with food and water ad libitum. Mice were fed standard laboratory rodent diet (#5001).
# (§3) In order to see whether the α-MSH analog has an effect on food intake, we compared weight change and food intake in these mice for one week (see bars in FIGS. 4A and 4B) under MSH analog treatment and after MSH analog treatment was stopped (FIGS. 4C and 4D). During one week under MSH analog treatment mutant mice lost 0.5 g, while wildtype littermates gained 0.3 g; the food intake during this time was equivalent in both groups (20.7 g in wildtypes, and 22.7 g in mutants).
# POMC null mutant mice = test: Weight change and food intake under standard diet, MSH analog or high fat diet, POMC null mutant mice (Example 3); conditions: 1 or 2 μg i.p. once daily
# Experimental: as §1
# obese lep^ob/ob mice = test: Weight change in obese lep ob/ob mice treated with leptin, α-MSH analog or both (Example 4); conditions: 3 μg of each compound i.p. once daily; mice aged 2 months
# Experimental: To assess a more general effect of peripheral melanocortin on adipocytes, another genetic form of obesity, in lep^ob/ob mice, was treated with the α-MSH analog. In this experiment, the mice received leptin or the α-MSH analog alone, and in combination.
# Briefly, obese lep^ob/ob mice at age 2 months (2 per group) received daily either: (1) 3 μg of α-MSH analog (described in Examples 2 and 3 above); (2) 3 μg of recombinant mouse leptin; (3) 3 μg of α-MSH analog and 3 μg of recombinant mouse leptin in combination; or (4) saline. The compounds were delivered intraperitoneally once daily, 1-2 hours before the onset of darkness.
# ob/ob mutant mice [2] = test: Core temperature of ob/ob mutants exposed to 4° C. after MSH analog (Example 5); conditions: 7 micrograms; 5 hours without food, then 4° C. for 65 minutes; v. vehicle
# Experimental: In 1977, the decreased ability of ob/ob mutants to maintain body temperature at 4° C. was noted. This preceded the onset of obesity in these mice. In view of the evidence that MSH regulates adipocyte metabolism, the present inventors hypothesized that the low levels of circulating MSH in leptin deficient (ob/ob) mutants was responsible for the impaired thermal regulation. To test this, ob/ob mutants were injected with 7 micrograms of MSH analog or vehicle only as described above. The mice were left without food for 5 hours and then exposed to 4° C. for 65 minutes. Their core temperatures were measured periodically by transfer to a coldroom (4° C.) where core temperatures were measured using a digital thermometer fitted with a rectal probe (Atkins Technical Inc., Gainesville, Fla.). […] As the mice had no opportunity to eat between injection of the MSH analog and the cold challenge, food intake cannot be responsible for the altered thermal regulation.
# [3] = tested on: POMC homozygous mutant female mice; test: Daily intraperitoneal MSH analog in POMC homozygous mutant mice: body weight, food intake, coat pigmentation (Example 2); conditions: for weight loss, % of excess weight by 2 weeks: p<0.05 at day 16
# Experimental: as §2, §3
# An effect of MSH could also be seen on coat pigmentation. […] Yellow coat pigmentation gradually reappeared after MSH treatment was terminated (data not shown).
# [4] = tested on: ob/ob mutant mice (C57BL/6J-Lep^ob); test: Circulating MSH levels by RIA in ob/ob mutants after leptin (Example 5); conditions: leptin 7 microgram/day i.p.; two hours after the tenth daily injection
# Experimental: To test the inductive ability of leptin on circulating MSH levels, ob/ob mutants (ob/ob mutant mice (C57BL/6J-Lep^ob) and congenic controls were purchased from the Jackson Laboratory, Bar Harbor, Me.) were treated with leptin (7 microgram/day) or with vehicle alone (Murine recombinant leptin was kindly provided by Dr. A. F Parlow through the National Hormone and Pituitary Program (NHPP); hormones were diluted to 70 micrograms per milliliter in PBS; mice were injected intraperitoneally with 0.1 mL). Two hours after the tenth daily injection, blood samples were drawn from the retro-orbital sinus and analyzed for MSH levels by RIA following the manufacturer's instructions (Peninsula Laboratories, Belmont, Calif.).
# [5] = daily injections of 7 micrograms
molecule,measurement,setting,value
"[Ac-Cys^4, D-Phe^7, Cys^10]α-MSH (4-13) amide [MSH analog]",food intake under MSH analog,wildtype mice,decreases food intake
same,weight regulation under MSH analog,wildtype mice,maintaining their body weight constant
same,effect of MSH analog added to leptin on weight,"ob/ob mutant mice [1]; 7 micrograms of each, daily",inability of peripheral MSH analog to supplement the weight reducing effect
same,effect on weight gain compared with effect on food intake,ob/ob mutant mice [1]; [5],greater on weight gain than on food intake
same,weight gain,ob/ob mutant mice [1]; [5],effectively decreased weight gain; also recorded: decreases weight gain
same,weight loss in wildtype littermates,wildtype female mice; listed as MSH-agonist,no significant weight loss
same,weight loss in wildtype littermates,wildtype female mice; listed as α-MSH agonist,did not lose significant weight
same,weight gained during one week under MSH analog treatment,"wildtype female mice; second week of treatment, wildtype littermates",0.3 g
same,food intake during one week under MSH analog treatment,"wildtype female mice; second week of treatment, wildtypes",20.7 g
same,weight gain in one week after MSH analog treatment had been stopped for two weeks,"wildtype female mice; third week after termination, wildtype littermates",0.3 g
same,food intake in one week after MSH analog treatment had been stopped for two weeks,"wildtype female mice; third week after termination, wildtypes",24.2 g
same,food intake under MSH analog,POMC null mutant mice,decreases food intake
same,weight change under MSH analog,POMC null mutant mice,lose excess weight
same,total weight change over a period of 10 days compared to untreated controls,obese lep^ob/ob mice,slowed weight gain by almost half
same,core temperature / thermal homeostasis at 4° C.,ob/ob mutant mice [2],maintained their core temperature much better; also recorded: increases thermal homeostasis
same,"weight loss, % of excess weight by 2 weeks","[3]; 1 microgram (~1 nmol) i.p. daily, mutant female mice, listed as MSH-agonist",46 % of excess weight
same,"weight loss, % of excess weight by 2 weeks","[3]; 1 microgram (~1 nmol) i.p. daily, mutant female mice, listed as α-MSH agonist",over 40 % of excess weight
same,"weight loss, % of excess weight within one week","[3]; 1 microgram (~1 nmol) i.p. daily, mutant female mice, p<0.1 at day 8",38 % of excess weight
same,time until mutant mice started to gain weight after MSH injections were stopped,[3]; after 16-day treatment,about 10 days
same,weight regain after MSH injections were stopped,[3]; another two weeks after onset of regain,reached close to their pretreatment weight
same,weight lost during one week under MSH analog treatment,"[3]; second week of treatment, mutant mice",0.5 g
same,food intake during one week under MSH analog treatment,"[3]; second week of treatment, mutants",22.7 g
same,weight gained in one week after MSH analog treatment had been stopped for two weeks,"[3]; third week after termination, mutant mice",1.7 g
same,food intake in one week after MSH analog treatment had been stopped for two weeks,"[3]; third week after termination, mutants",35.7 g
same,excess food intake of mutants over wildtypes after treatment stop,"[3]; third week after termination, p<0.005",11.5 g
same,coat pigmentation,[3]; treated for two weeks,lost their yellowish tinge
B1,weight gain,ob/ob mutant mice [1]; [5],effectively decreased weight gain
same,circulating MSH levels,[4],approached those found in normal control mice; also recorded: induces almost normal levels of circulating MSH
same,total weight change over a period of 10 days compared to untreated controls,obese lep^ob/ob mice,little effect on preventing further weight gain
